Experimental data: article PMC4520450, “Procyanidins Negatively Affect the Activity of the Phosphatases of Regenerating Liver” (PLoS ONE, 2015)

Legend:
[1] = tested on: PRL-3 overexpressing HEK293 cell line; assay: Transwell cell migration assay; type: cell-based; details: 16 h, PRL-3 overexpressing cells
Method: (§1) To study if procyanidin C2 is able to inhibit PRL-1 and PRL-3 in cells, HEK293 cells were treated in a wound-healing assay (see the experimental procedures). […] As a control the empty vector cell line was again utilized. […] The migration speed was for all cell lines similar when treated with 50 μM of 9. To further corroborate these findings we performed additionally a transwell assay as an alternative way to study cell migration.
(§2) Fig 6 Wound healing abilities of PRL-1 or PRL-3 overexpressing or empty vector control HEK293 cell lines were analyzed in the presence of compound 9 or medium only. Cells were seeded at a concentration of 800,000 cells per insert and procyanidin C2 (9) was added at a concentration of 25 and 50 μM. A) Pictures of the wound gaps were taken at 0 h and 7 h for both conditions (with and without treatment). B) Quantification of the wound healing experiment. Speed of migration is shown for combined data from different replicates, as mean ± SD (n = 38–88). Two-sided t-tests with Welsh correction were performed for p < 0.05. ns = not significant;***: < 0.001; **: < 0.01; *: < 0.05. C) Effect of polyphenolic compounds in a transwell assay on the cell migration of HEK293 empty vector and PRL-3 overexpressing cell lines. Cells were seeded at a concentration of 100,000 cells per insert and procyanidin C2 (9) was added at a final concentration of 25 and 50 μM. Migration was allowed for 16 h before harvesting and staining with calcein AM for fluorescent readout. Mean ± SD (n = 60–72) is shown for combined data from different replicates. Two-sided t-tests with Welsh correction were performed for p < 0.05. ns = not significant. D) Quantification of wound healing experiment including blocking PRL-1 and PRL-3 with analog 3. Speed of migration is shown for combined data from different replicates, as mean ± SD (n = 63–82). Two-sided t-tests with Welsh correction were performed for p < 0.05.
(§3) HEK293 empty vector, PRL-1 and PRL-3 overexpressing cells were kept in selection medium (DMEM medium without Phenol red, supplemented with 10% FBS, 1% glutamine and 0.2% hygromycin and blasticidin) for one week until full confluency. Then, 0.1% tetracycline (1 mg/ml stock solution in ethanol) was added for induction of PRL-1 and PRL-3 expression in HEK293 PRL-1 and HEK PRL-3 wt 24 h prior plating on transwell inserts. For comparison, HEK293 empty vector was also treated with tetracycline. After 24 h, the medium was removed, cells were washed with PBS and starvation medium supplemented with 0.1% tetracycline was added. […] Then, 3x100 μL were taken from each well and transferred to a black assay plates and the relative concentration of the fluorescent product formed in the cells was determined by following the emission at 520 nm with excitation at 452 nm. […]

[2] = tested on: HEK293 empty vector cell line; assay: Transwell cell migration assay; type: cell-based; details: 16 h, empty vector cells
Method: as §1, §2, §3

Oc1cc(O)c2c(c1)O[C@H](c1ccc(O)c(O)c1)[C@@H](O)[C@@H]2c1c(O)cc(O)c2c1O[C@H](c1ccc(O)c(O)c1)[C@@H](O)[C@@H]2c1c(O)cc(O)c2c1O[C@H](c1ccc(O)c(O)c1)[C@@H](O)C2 [Procyanidin C2 (9), Procyanidin C2]
cell migration, transwell ([1]; 25 μM): did not lead to a significant change in cell migration | cell migration, transwell ([1]; 50 μM): significant decrease in migration | cell migration, transwell ([2]; 25 μM): did not lead to a significant change in cell migration | cell migration, transwell ([2]; 50 μM): significant increase in cell migration
